ChEMBL document CHEMBL2448809, “UCSF DeRisi Lab MMV Box Apicoplast Screening”

Tested on: Plasmodium falciparum
Experiment: MMV: Compounds (1uM) were screened in a 72hr growth assay monitored by flow cytometry both in the presence and absence of supplemental isopentenyl pyrophosphate (IPP) 200uM. Compounds which fail to show anti-malarial activity when chemically rescued by IPP are therefore specific to the apicoplast. The values are expressed as the ratio of the corresponding activity with and without IPP, respectively.
Format: functional, W2

| SMILES | Ratio |
| --- | --- |
| CN1CCN(c2ccc(Nc3c4ccccc4nc4ccccc34)cc2)CC1 | 0.8 |
| CN(C)CCCNc1c2ccccc2nc2ccccc12 | 0.7564 |
| CCN1CCCC1CNc1[nH]cnc2c3cc(Cl)ccc3nc1-2 (configuration not stated) | 0.925 |
| COc1ccc(-c2c(C)nn3c(N)c(C#N)cnc23)cc1OC | 0.831 |
| CSC1=NC(=Nc2c(C)cccc2C)C2(CCC(C(C)(C)C)CC2)N1c1ccc(Cl)cc1 (configuration not stated) | 0.8243 |
| C[n+]1c2ccccc2nc2ccc(NCCO)cc21 | 0.9178 |
| Cc1cc(C)cc(Nc2cc(C)nc3nc(C(F)(F)F)nn23)c1 | 0.8519 |
| O=C(NCC(c1ccsc1)N1CCCCCC1)c1ccc(C(F)(F)F)cc1 (configuration not stated) | 0.9077 |
| COc1ccc(-c2cc3c(SCC(=O)Nc4cc(C(F)(F)F)ccc4Cl)nccn3n2)cc1 | 0.9714 |
| Cc1ccc(-c2cc3c(SCC(=O)Nc4cc(C(F)(F)F)ccc4Cl)nccn3n2)cc1 | 0.9375 |
| CCN(CC)CCNc1ncnc2c1[nH]c1ccc(Cl)cc12 | 0.6923 |
| CCOC(=O)c1cnc2ccc(CC)cc2c1O | 1 |
| Cc1ccc(-c2cc3c(nn2)-c2ccccc2C3=O)cc1 | 0.7253 |
| CCN(CC)CCNc1ccnc2cc(Cl)ccc12 | 0.8734 |
| Cc1ccc(Nc2nc(-c3ccccn3)cs2)cc1 | 0.7264 |
| CCCCCC(=O)N1c2ccccc2N=C2CC(c3ccc(OC)c(OC)c3)CC(O)=C2C1c1ccc(C(F)(F)F)cc1 (configuration not stated) | 0.7792 |
| Cc1cc(Nc2ccc3ccccc3c2)n2ncnc2n1 | 0.8919 |
| Cc1cc(NCCN2CCCCC2)c2ccc3ccccc3c2n1 | 0.8873 |
| COc1ccc(-n2ccnc2SCC(=O)Nc2cc(C)ccc2C)c(OC)c1 | 0.75 |
| CCN1CCN(Cc2ccc(NC(=O)c3cc4ccc5cccnc5c4[nH]3)cc2)CC1 | 1.563 |
| COc1ccc(-c2nc(NC(=O)CS(=O)(=O)c3ccc(F)cc3)sc2C)cc1 | 0.8289 |
| O=C(NCc1ccco1)C1CCN(S(=O)(=O)c2ccc(Cl)cc2)CC1 | 0.8889 |

| SMILES | Ratio |
| --- | --- |
| O=C(O)C1Cc2c([nH]c3ccccc23)C(c2ccc(Cl)cc2Cl)N1 (configuration not stated) | 6.316 |
| c1ccc(-c2ccc(-c3nc4ccccc4[nH]3)cc2)cc1 | 1.5 |
| CCC(C)NCC(O)(c1ccc(Cl)cc1)c1ccc(Cl)cc1 (configuration not stated) | 1.02 |
| Cc1ccc(N2C(=O)C3C(C2=O)C2(c4ccccc4)C(=O)C3(c3ccccc3)C(c3ccccc3)=C2c2ccccc2)cc1 (configuration not stated) | 1.121 |
| CCc1c(C)c(=N)c2ccccc2n1C.I | 1.064 |
| COc1cccc(NC(=O)[C@H](C(C)C)n2c(=O)[nH]c3ccccc3c2=O)c1 | 0.7619 |
| CCOC(=O)c1cn(CC)c2cc(N(C)CCc3ccc(OC)c(OC)c3)c(F)cc2c1=O | 0.75 |
| CCC(c1ccccc1)c1nn2c(-c3cccs3)nnc2s1 (configuration not stated) | 0.775 |
| CC(C)(C)c1ccc(O)c(CNC2CCCCC2)c1 | 0.8356 |
| O=[N+]([O-])c1ccc(C=NNc2nc3ccccc3[nH]2)cc1 | 1.132 |
| CCOc1cc2c(cc1OCC)C(c1cc(OC)c(O)cc1Cl)NCC2 (configuration not stated) | 0.9254 |
| CC1CN(C(=O)c2sc3ccccc3c2Cl)CC(C)O1 (configuration not stated) | 0.8415 |
| COCCNC(=O)c1ccc(OC2CCN(Cc3ccc(F)c(F)c3)CC2)c(Cl)c1 | 1.063 |
| CN(C)c1ccc(C=Cc2nc(=O)c3ccccc3o2)cc1 | 0.8302 |
| COc1ccc(C2=C(c3ccc(OC)cc3)C3(c4ccccc4)C(=O)C2(c2ccccc2)C2C(=O)N(c4ccc(C)cc4)C(=O)C23)cc1 (configuration not stated) | 1.0625 |
| CCOC(=O)c1c(NC(=O)c2ccccc2)sc2c(O)c(CN(CC)CC)ccc12 | 0.8592 |
| CCOC(=O)C1=C(c2ccccc2)N=c2sc(=Cc3cc(C)n(-c4ccc(F)cc4)c3C)c(=O)n2C1c1cccc(OC)c1OC (configuration not stated) | 0.7267 |
| CCC1(C)CC(CCNCc2ccccc2O)(c2ccc(C)cc2)CCO1 (configuration not stated) | 0.8378 |
| O=C(CCc1ccco1)NC1CCN(CC2(c3ccc(Cl)cc3)CCC2)CC1 | 0.875 |
| OC(CNC1CCCCC1)Cn1c2ccccc2c2ccccc21 (configuration not stated) | 1.115 |
| Cc1cc(Nc2ccc(C)c(Cl)c2)n2nc(C(F)(F)F)nc2n1 | 0.6628 |
| COc1cccc(C=Cc2nc(=O)c3ccccc3o2)c1OC | 0.4632 |

| SMILES | Ratio |
| --- | --- |
| CCCN(CCC)CC(O)COc1ccccc1C(=O)Nc1ccccc1 (configuration not stated) | 0.8553 |
| Fc1ccc2[nH]c3c(NCCCN4CCOCC4)ncnc3c2c1 | 0.8594 |
| COc1ccc(C(=O)Nc2nonc2-c2ccc(OC)c(OC)c2)cc1Cl | 0.8261 |
| COCCN(C(=O)Cc1cccs1)C(C(=O)NCc1ccc(OC)cc1)c1ccc(C(C)C)cc1 (configuration not stated) | 0.8315 |
| COc1ccc(C=C2SC(=N)N(c3ccccc3OC)C2=O)cc1 | 0.8861 |
| COc1ccc(NC(=O)C2c3ccccc3C(=O)N(CC(C)C)C2c2cccs2)cc1Cl (configuration not stated) | 0.9242 |
| CCOC(=O)c1c(C)n(-c2ccc(Cl)cc2)c2ccc(OC(=O)C=Cc3ccccc3)cc12 | 1.121 |
| COc1ccc2c(c1)OC(O)(C(F)(F)C(F)(F)F)CC2=O (configuration not stated) | 0.9 |
| FC(F)(F)c1cccc(CNC2CCN(CCc3ccccc3)CC2)c1 | 0.9344 |
| Oc1ccc(Cl)cc1CNc1nc2ccccc2[nH]1 | 1.068 |
| CCOc1cc(Cl)c(C(C)NC(=O)c2ccccc2)cc1OCC (configuration not stated) | 0.9848 |
| C=CC12CCN(CC1)C(C(O)c1ccnc3ccc(OC)cc13)C2.Cl (configuration not stated) | 0.6933 |
| Cc1ccc(-c2cc3nc4c(c(O)n3n2)CCCC4)cc1 | 0.9459 |
| O=C(c1ccccc1F)N(Cc1ccc(Cl)cc1)c1ccccn1 | 0.7857 |
| Cc1cccc(Nc2nc(N)c3ccccc3n2)c1.Cl | 0.9275 |
| COc1ccc(C(=O)Nc2ccc(Cl)cc2C(=O)Nc2ccncc2)cc1 | 0.8104 |
| CCn1c(CN2CCN(Cc3ccccc3)CC2)nc2cc(NC(=O)c3cccs3)ccc21 | 0.8481 |
| COc1ccccc1CNC(=O)CCn1c(=O)[nH]c2ccccc2c1=O | 1.153 |
| O=C(Nc1ccc(Cl)cc1)N1CCN(c2ccc3nncn3n2)CC1 | 0.8112 |
| c1ccc2cc3c(Nc4ccc(N5CCOCC5)cc4)ccnc3cc2c1 | 0.7931 |
| O=C(CSc1ccc2nnc(-c3cccc(F)c3)n2n1)Nc1ccc2c(c1)OCO2 | 0.7344 |
| CCCCNCC(O)(c1ccc(Cl)cc1)c1ccc(Cl)cc1 | 1.074 |

| SMILES | Ratio |
| --- | --- |
| Cc1cc(C)c2c(c1)OCN(Cc1ccccc1Cl)C2 | 0.8871 |
| COc1cc(OC)c(N(C)C(=O)c2cc3c(s2)-c2ccccc2S(=O)(=O)C3)cc1Cl | 1 |
| COc1ccccc1NC1=C(N2CCCCC2)C(=O)c2ccccc2C1=O | 0.9344 |
| CCOC(=O)c1cn(CC)c2cc(N3CCCCC3)c(F)cc2c1=O | 0.6824 |
| CCCc1cc(O)c2c3c(c(=O)oc2c1)CN(C)CC3 | 0.8028 |
| Cc1cc(NC(=O)C2c3ccccc3C(=O)N(CC(C)C)C2c2cccs2)no1 (configuration not stated) | 0.791 |
| Cl.Oc1ccccc1CNCC12CC3CC(CC(C3)C1)C2 | 0.8 |
| CNCCCNc1ccnc2cc(Cl)ccc12 | 0.8333 |
| COc1ccccc1CNC(=O)CCn1c(=O)[nH]c2ccsc2c1=O | 1.123 |
| COc1ccc(Br)cc1C1Nc2ccc3ccccc3c2C2=C1C(=O)CC(c1ccccc1)C2 (configuration not stated) | 0.8077 |
| Cc1cc(C=C2SC(=Nc3ccccc3)N(C3CCCC3)C2=O)c(C)n1-c1ccc(Cl)cc1 | 1.038 |
| CCn1c(SCC(=O)Nc2cc(C(F)(F)F)ccc2Cl)nc2ccccc2c1=O | 1 |
| Cc1ccc(Cn2c(N3CCC(C(=O)NCc4cccs4)CC3)nc3ccccc32)cc1 | 1.032 |
| CC1CCN(Cc2ccc(NC(=O)c3cc4ccc5cccnc5c4[nH]3)cc2)CC1 | 1 |
| O=C(Nc1ccc(Cl)cc1C(=O)Nc1ccncc1)c1ccc(Cl)cc1Cl | 0.7485 |
| CCOc1cccc2sc(N(Cc3cccnc3)C(=O)C3CCCCC3)nc12 | 0.8788 |
| CCOc1ccc(-c2nonc2NC(=O)c2cccc(C)c2)cc1OCC | 0.6977 |
| CCc1ccc(Nc2cc(C)c3ccc(O)cc3n2)cc1.Cl | 0.7867 |
| COc1ccc2c(=O)cc(C(Cl)(Cl)Cl)oc2c1 | 0.7571 |
| CC(C)(C)CC(C)(C)NCC(O)COc1ccc2c(c1)CCC2.Cl (configuration not stated) | 1.052 |
| CCOc1ccc(/C=C/c2nc(=O)c3ccccc3o2)cc1 | 0.7714 |
| O=C(Nc1ccccc1O)c1ccc(-c2ccc(Cl)cc2Cl)o1 | 0.8413 |

| SMILES | Ratio |
| --- | --- |
| O=C(Nc1nc(-c2ccccn2)cs1)c1ccccc1Br | 0.987 |
| CSc1ccccc1C(=O)Nc1nc(-c2ccccn2)cs1 | 0.8125 |
| CC(O)(c1ccc(Cl)cc1)C(CN1CCCCC1)c1ccccc1.Cl (configuration not stated) | 0.9286 |
| CCCCc1ccc(NS(=O)(=O)c2cc3c4c(c2)CCN4C(=O)CC3)cc1 | 0.6295 |
| CCOc1ccccc1CNC(=O)C1c2ccccc2C(=O)N(CC(C)C)C1c1cccs1 (configuration not stated) | 1.143 |
| COc1ccc(-c2nc3cc(Cc4ccc5[nH]c(-c6ccc(OC)cc6)nc5c4)ccc3[nH]2)cc1 | 1.389 |
| CCOC(=O)c1ccc2nc(-c3ccccc3)cc(O)c2c1 | 0.3465 |
| Cc1cc(Nc2ccc(Cl)cc2)n2nc(C(F)(F)F)nc2n1 | 0.9718 |
| COc1ccc(C(C)=O)cc1N1C(=O)C2C(C1=O)C1(c3ccccc3)C(=O)C2(c2ccccc2)C(c2ccc(C)cc2)=C1c1ccc(C)cc1 (configuration not stated) | 0.8421 |
| CCCCCCOC(=O)C1=C(C)NC(=O)NC1c1ccccc1F (configuration not stated) | 0.6566 |
| COc1ccc(C2Sc3ccccc3N=C3C2=C(O)c2ccccc23)cc1 (configuration not stated) | 1.228 |
| Cc1ccc(N2C3c4ccccc4N(S(=O)(=O)c4ccc(C)cc4)C2c2ccccc2N3S(=O)(=O)c2ccc(C)cc2)cc1 | 0.3473 |
| CCCc1c(CC)c(=N)c2ccccc2n1C | 1.043 |
| CCN(CC)CCCNc1nc(-c2ccc(Cl)cc2)nc2ccccc12 | 1.055 |
| Cc1ccc(Nc2nc(NCCO)c3ccccc3n2)cc1C | 0.8028 |
| CC1CCCCN1CCCNC(=O)c1ccc2c(c1)sc1nc(-c3ccc(F)cc3)cn12 (configuration not stated) | 1.167 |
| CCOC(=O)c1cnc2c(C)cc(C)cc2c1Nc1ccc(OC)c(OC)c1 | 1.122 |
| COc1ccc(NC(=O)C2c3ccccc3C(=O)N(CC(C)C)C2c2cccs2)cc1 (configuration not stated) | 1.197 |
| c1ccc(Cn2c(N=Nc3c(Nc4ccccc4)ccc4ccccc34)nc3ccccc32)cc1 | 0.863 |
